Common to all, as to assay: fluorescence polarization competition with fluorescent BOP probe
Format in all cases: binding
For orientation: Fluorescence polarisation rises when a labelled molecule tumbles more slowly, as on binding a larger partner.

The target of assay [1] is T1, integrin α2β1 ectodomain (Homo sapiens, UniProt P05556+P17301).
T1 construct: gene ITGA2; ectodomain heterodimer; alpha with ACID coil and C-terminal StrepII tag, beta with BASE coil and His tag; Expi293 cells, separate pcDNA3.4 vectors
T1 sequence (P17301 30-1129): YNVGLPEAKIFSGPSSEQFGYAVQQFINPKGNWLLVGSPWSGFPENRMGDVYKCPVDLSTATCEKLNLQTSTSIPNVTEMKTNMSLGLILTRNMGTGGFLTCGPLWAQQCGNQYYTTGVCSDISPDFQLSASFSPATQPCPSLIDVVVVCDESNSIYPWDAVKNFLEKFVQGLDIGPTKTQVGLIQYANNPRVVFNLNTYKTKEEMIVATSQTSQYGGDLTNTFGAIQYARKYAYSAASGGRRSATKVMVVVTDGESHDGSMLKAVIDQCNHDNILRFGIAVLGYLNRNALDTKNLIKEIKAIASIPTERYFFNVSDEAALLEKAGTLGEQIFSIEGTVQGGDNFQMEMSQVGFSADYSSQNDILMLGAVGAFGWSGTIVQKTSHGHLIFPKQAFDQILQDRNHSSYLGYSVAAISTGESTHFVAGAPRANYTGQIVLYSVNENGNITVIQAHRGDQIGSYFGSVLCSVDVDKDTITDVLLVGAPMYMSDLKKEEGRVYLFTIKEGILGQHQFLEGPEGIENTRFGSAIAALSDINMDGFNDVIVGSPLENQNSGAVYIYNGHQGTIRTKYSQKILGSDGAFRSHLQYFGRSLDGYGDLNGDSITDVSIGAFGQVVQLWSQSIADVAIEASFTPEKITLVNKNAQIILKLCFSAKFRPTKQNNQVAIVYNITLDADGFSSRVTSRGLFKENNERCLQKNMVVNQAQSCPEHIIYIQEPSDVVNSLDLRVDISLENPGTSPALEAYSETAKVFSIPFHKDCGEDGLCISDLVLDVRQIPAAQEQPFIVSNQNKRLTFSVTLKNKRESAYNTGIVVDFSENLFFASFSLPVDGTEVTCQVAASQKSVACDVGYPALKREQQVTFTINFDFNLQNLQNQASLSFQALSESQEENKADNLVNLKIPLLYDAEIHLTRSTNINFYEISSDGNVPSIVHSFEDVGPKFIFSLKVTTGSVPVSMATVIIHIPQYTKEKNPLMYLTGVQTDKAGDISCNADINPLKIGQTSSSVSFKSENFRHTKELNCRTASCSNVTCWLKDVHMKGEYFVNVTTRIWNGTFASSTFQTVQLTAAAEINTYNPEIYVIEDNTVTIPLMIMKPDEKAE
T1 sequence (P05556 21-728): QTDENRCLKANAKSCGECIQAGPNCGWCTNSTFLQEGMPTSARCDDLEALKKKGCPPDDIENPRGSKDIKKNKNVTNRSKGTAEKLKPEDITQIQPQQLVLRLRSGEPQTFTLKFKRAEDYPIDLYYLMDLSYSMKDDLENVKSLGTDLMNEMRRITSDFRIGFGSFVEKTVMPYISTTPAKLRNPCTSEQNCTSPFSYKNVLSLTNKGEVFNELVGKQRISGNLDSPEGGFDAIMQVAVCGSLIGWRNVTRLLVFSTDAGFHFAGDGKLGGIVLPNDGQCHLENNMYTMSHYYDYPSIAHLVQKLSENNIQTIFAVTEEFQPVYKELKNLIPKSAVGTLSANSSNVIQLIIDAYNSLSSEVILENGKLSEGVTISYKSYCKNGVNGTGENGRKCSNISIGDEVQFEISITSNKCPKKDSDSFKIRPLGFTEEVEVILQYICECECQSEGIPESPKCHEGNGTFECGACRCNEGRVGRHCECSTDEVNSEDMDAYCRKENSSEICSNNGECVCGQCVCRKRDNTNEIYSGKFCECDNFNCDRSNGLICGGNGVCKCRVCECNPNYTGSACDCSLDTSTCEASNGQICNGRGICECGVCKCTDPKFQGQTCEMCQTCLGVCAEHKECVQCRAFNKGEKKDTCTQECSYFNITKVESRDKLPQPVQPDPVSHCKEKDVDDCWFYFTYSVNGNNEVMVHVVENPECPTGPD

Assay [2] concerns the target T2, integrin α3β1 (Homo sapiens, UniProt P05556+P26006).
T2 construct: gene ITGA3; purchased recombinant heterodimer (R&D Systems), extracellular domains

Assay [3] addresses T3, integrin α1β1 ectodomain (Homo sapiens, UniProt P05556+P56199).
T3 construct: gene ITGA1; ectodomain heterodimer; alpha with ACID coil and C-terminal StrepII tag, beta with BASE coil and His tag; Expi293 cells, separate pcDNA3.4 vectors

Assay [4] deals with T4, integrin α11β1 ectodomain (Homo sapiens, UniProt P05556+Q9UKX5).
T4 construct: gene ITGA11; ectodomain heterodimer; continuous transcript alpha-GGGS-P2A-beta; alpha with ACID coil and C-terminal StrepII tag, beta with BASE coil and His tag; Expi293 cells; beta1 borders printed for the separate vector
T4 sequence (Q9UKX5 23-1139): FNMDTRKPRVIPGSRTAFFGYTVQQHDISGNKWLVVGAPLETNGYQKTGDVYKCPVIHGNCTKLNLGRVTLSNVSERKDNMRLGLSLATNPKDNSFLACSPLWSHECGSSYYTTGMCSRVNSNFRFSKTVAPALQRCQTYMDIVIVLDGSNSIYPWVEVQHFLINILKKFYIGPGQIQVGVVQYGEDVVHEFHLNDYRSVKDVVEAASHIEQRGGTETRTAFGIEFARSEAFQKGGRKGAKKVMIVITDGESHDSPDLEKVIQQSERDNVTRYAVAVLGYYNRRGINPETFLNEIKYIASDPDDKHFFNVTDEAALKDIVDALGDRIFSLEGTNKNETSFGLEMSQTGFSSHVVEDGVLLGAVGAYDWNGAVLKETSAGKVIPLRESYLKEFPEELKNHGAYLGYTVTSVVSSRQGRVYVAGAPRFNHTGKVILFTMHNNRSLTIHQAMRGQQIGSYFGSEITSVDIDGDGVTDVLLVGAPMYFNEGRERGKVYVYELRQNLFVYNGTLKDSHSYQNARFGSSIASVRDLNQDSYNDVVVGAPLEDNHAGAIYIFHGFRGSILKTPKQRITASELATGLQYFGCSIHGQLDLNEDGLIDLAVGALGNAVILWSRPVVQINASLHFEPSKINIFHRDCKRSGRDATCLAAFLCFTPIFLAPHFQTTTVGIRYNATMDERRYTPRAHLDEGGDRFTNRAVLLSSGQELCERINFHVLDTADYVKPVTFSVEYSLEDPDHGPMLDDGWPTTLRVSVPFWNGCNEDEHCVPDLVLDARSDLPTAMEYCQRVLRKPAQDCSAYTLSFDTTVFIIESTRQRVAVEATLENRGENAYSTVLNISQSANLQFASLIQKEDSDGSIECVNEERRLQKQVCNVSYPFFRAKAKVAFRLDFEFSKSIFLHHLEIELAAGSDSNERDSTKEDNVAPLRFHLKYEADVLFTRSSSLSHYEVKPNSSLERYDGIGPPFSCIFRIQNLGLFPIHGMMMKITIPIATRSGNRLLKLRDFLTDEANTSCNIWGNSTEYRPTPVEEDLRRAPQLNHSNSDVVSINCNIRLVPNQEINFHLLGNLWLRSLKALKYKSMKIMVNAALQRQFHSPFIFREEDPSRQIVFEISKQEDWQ
T4 sequence (P05556 21-728): as the sequence (P05556 21-728) above

Assay [5] addresses T5, integrin α10β1 ectodomain (Homo sapiens, UniProt O75578+P05556).
T5 construct: gene ITGA10; ectodomain heterodimer; continuous transcript alpha-GGGS-P2A-beta; alpha with ACID coil and C-terminal StrepII tag, beta with BASE coil and His tag; Expi293 cells; beta1 borders printed for the separate vector

Experimental findings from paper PMC10404678, “A recombinant technique for mapping functional sites of heterotrimeric collagen helices: Collagen IV CB3 fragment as a prototype for integrin binding” (The Journal of Biological Chemistry, 2023) are described below.

T5 sequence (O75578 23-1120): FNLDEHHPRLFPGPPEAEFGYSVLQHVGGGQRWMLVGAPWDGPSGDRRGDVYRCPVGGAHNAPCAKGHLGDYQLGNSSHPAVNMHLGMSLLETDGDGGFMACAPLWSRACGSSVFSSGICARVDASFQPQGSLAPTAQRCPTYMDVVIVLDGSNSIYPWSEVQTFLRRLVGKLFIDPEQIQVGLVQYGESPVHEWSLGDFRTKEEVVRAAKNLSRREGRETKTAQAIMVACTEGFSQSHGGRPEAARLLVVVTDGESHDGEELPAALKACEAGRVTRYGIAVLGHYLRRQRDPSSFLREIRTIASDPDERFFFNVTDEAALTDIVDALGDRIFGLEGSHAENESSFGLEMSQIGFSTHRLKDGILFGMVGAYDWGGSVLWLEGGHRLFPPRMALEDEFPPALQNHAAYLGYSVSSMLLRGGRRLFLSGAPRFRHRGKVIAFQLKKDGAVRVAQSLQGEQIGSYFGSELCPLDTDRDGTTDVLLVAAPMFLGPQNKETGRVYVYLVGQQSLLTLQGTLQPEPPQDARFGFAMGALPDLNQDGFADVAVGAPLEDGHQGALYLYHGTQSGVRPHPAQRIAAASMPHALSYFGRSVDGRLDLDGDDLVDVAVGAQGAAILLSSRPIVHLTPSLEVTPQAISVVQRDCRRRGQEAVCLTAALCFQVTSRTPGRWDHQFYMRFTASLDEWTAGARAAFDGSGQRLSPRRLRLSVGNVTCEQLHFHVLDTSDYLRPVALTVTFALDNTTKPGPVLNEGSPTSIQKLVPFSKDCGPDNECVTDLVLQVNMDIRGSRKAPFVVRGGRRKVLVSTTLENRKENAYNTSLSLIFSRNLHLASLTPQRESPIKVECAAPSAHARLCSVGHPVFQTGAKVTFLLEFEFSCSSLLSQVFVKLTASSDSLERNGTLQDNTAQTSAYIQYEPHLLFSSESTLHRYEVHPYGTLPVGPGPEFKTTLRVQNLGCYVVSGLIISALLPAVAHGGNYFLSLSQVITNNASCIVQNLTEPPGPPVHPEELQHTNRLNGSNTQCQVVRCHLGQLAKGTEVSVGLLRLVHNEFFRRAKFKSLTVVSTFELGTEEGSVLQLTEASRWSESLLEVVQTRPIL
T5 sequence (P05556 21-728): as the sequence (P05556 21-728) above

Regarding `O=C(O)[C@H](Cc1ccc(OC(=O)N2CCCC2)cc1)NC(=O)[C@@H]1CCCN1S(=O)(=O)c1ccccc1` [BOP, N-(Benzenesulfonyl)-L-prolyl-L-O-(1-pyrrolidinylcarbonyl)tyrosine], the IC50 is 16.2 nM in assay [1]; 31.2 nM in assay [2]; 80.7 nM in assay [3]; 118 nM in assay [4]; 25.3 nM in assay [5].

Usually IC50 stands for the concentration at which inhibition is half-maximal. Read a high IC50 as weaker potency.
